# Results taken from ChEMBL document CHEMBL1201862, “PubChem BioAssay data set” (2004).
# Activity calls are given as the source filed them.
# Key:
# [1] = Vero cell cytotoxicity, dose response, cytotoxicity control for Vif-APOBEC3G degradation inhibitor project, Vero cells (AID 1117358); type: functional; conditions: Human immunodeficiency virus 1, Vero
# [2] = biological target: Voltage-gated inwardly rectifying potassium channel KCNH2 (Homo sapiens, UniProt Q12809); assay: hERG protection from proarrhythmic block, potency, dose response, cell-based, thallium flux (AID 2121); type: ADME
# [3] = system: Danio rerio; assay: In Vivo Angiogenesis Dose-Response Confirmation. [Related pubchem assays: 732 (Assay preceding this confirmatory assay.)]; type: functional, organism-based
# [4] = biological target: T1, Tyrosine-protein phosphatase non-receptor type 7 (Homo sapiens, UniProt P35236); assay: inhibitors of human HePTP phosphatase, […], biochemical, absorbance, leukemia target (AID 521); type: functional
# T1 sequence (P35236 whole entry): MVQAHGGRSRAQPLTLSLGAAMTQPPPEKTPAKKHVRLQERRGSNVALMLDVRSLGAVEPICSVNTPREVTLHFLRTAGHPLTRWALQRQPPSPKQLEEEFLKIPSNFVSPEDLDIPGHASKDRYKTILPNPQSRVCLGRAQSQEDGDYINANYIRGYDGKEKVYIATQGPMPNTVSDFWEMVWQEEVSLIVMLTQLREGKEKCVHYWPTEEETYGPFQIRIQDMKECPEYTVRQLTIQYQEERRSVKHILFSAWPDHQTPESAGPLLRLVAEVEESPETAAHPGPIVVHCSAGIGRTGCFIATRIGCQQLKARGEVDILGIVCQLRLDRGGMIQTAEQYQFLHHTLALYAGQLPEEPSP
# [5] = biological target: Ubiquitin carboxyl-terminal hydrolase BAP1 (Homo sapiens, UniProt Q92560); assay: BAP1 deubiquitinase inhibitors, dose response, biochemical (AID 714); type: functional
# [6] = biological target: Voltage-dependent T-type calcium channel subunit alpha-1H (Homo sapiens, UniProt O95180); type: functional;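 note: channel activity triggered by adding a high calcium stimulation buffer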
# [7] = system: Saccharomyces cerevisiae; assay: NALP1 inhibitor project selectivity study, Caspase-1/ASC signal blockade IC50 in S. cerevisiae (AID 488863); type: functional, organism-based
# [8] = biological target: NACHT, LRR and PYD domains-containing protein 1 (Homo sapiens, UniProt Q9C000); assay: NALP1 inhibitors in yeast, dose response, luminescent (AID 488860); type: functional
# [9] = inhibitors of Vif binding to APOBEC3G peptide, primary screen, biochemical, TR-FRET, GST-Vif 1-94, biotin-A3G peptide, dose response retest (AID 1117319); type: functional;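 note: TR-FRET signal of purified GST-Vif binding a biotinylated A3G peptide; inhibitors lower the FRET signal by blocking Vif and A3G binding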
# [10] = biological target: Genome polyprotein (Hepatitis C virus, UniProt Q2Q167); assay: HCV core protein dimerization inhibitors, dose response, biochemical, TR-FRET (AID 2159); set-up: species or system Hepacivirus hominis;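 note: blocks dimerization of HCV core protein measured by TR-FRET between tagged core106 pairs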
# [11] = biological target: T2, Estrogen receptor (Homo sapiens, UniProt P03372);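 note: potency for inhibiting coactivator peptide recruitment to the receptor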
# T2 sequence (P03372 whole entry): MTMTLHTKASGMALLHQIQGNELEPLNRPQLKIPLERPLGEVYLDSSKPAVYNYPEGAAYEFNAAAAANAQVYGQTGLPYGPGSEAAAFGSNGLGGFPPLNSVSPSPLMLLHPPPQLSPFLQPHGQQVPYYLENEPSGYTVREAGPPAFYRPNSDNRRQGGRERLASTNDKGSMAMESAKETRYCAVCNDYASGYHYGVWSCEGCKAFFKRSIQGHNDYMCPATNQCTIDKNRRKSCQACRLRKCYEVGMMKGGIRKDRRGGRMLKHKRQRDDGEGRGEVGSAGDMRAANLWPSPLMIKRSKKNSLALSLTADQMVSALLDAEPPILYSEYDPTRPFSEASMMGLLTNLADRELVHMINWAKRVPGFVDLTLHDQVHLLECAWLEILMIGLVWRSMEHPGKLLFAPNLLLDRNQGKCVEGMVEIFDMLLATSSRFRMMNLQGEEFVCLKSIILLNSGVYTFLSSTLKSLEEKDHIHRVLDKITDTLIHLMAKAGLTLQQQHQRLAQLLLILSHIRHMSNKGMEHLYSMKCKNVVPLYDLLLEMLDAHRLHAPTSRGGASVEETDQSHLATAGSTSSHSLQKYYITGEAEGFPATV
# [12] = biological target: T3, Estrogen receptor beta (Homo sapiens, UniProt Q92731);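 note: recombinant ER-beta bound to coactivator SRC1 peptide in presence of estradiol agonist; inhibitors block coactivator peptide binding and lower the FRET signal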
# [13] = biological target: T3, Estrogen receptor beta; assay: ERβ–SRC-3 coactivator interaction inhibitors, confirmation, orthogonal assay, biochemical, ELISA, streptavidin-HRP readout (AID 1060)
# [14] = biological target: T4, Dual specificity protein phosphatase 6 (Rattus norvegicus, UniProt Q64346); assay: MKP-3 phosphatase inhibitors, primary screen, biochemical, rat enzyme, in vitro (AID 425)
# T4 sequence (Q64346 whole entry): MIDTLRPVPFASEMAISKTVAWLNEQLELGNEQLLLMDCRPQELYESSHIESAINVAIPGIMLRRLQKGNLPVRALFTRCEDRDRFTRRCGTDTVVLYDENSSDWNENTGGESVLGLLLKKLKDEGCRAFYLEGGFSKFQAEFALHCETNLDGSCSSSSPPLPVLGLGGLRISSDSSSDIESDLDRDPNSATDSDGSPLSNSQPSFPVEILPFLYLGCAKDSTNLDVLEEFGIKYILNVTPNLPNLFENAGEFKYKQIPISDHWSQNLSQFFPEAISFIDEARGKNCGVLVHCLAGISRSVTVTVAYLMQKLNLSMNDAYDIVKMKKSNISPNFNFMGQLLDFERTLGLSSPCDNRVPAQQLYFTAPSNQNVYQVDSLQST
# [15] = biological target: Eukaryotic translation initiation factor 4E (Mus musculus, UniProt P63073); assay: eIF4E–eIF4G protein interaction inhibitors, dose response, biochemical, TR-FRET (AID 855); type: functional;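 note: potency for disrupting eIF4E binding to eIF4GI seen as loss of FRET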
# [16] = biological target: T5, Carboxy-terminal domain RNA polymerase II polypeptide A small phosphatase 1 (Homo sapiens, UniProt Q9GZU7); assay: inhibitors of CTDSP1, concentration-response testing, biochemical assay, absorbance-based, actives from ultra-high-throughput screening (AID 540297); type: functional
# T5 sequence (Q9GZU7 whole entry): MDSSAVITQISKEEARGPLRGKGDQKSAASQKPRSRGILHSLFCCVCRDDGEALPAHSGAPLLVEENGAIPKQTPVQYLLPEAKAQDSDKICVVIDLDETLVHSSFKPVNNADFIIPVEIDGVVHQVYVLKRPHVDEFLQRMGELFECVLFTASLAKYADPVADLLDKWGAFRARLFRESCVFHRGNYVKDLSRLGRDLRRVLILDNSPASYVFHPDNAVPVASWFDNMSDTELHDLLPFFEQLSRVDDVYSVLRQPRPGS
# [17] = system: Vero; assay: host cell cytotoxicity of antiviral hits, dose response, cytotoxicity control for West Nile virus antiviral project, secondary assay (AID 1650); type: functional; conditions: Chlorocebus sabaeus
# [18] = system: Vero; assay: West Nile virus antiviral activity, cell-based, CPE readout (AID 1621); type: functional; conditions: Chlorocebus sabaeus
# [19] = biological target: Glucose-6-phosphate 1-dehydrogenase (Homo sapiens, UniProt P11413); assay: human G6PD enzyme inhibitors, dose response, selectivity assay for P. falciparum G6PD inhibitor project, biochemical, fluorescence (AID 504792); type: functional
# [20] = biological target: Nonstructural protein 1 (Influenza A virus, UniProt Q194T2); type: functional, Influenza A virus (A/California/07/2009(H1N1))
# [21] = system: CHO; assay: cytotoxicity in TLR9-MyD88 CHO cells, dose response, cytotoxicity control for TLR9-MyD88 binding inhibitor project, cell-based, luminescence (AID 588339); type: functional, hamster; conditions: Cricetulus griseus;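 note: CHO cells stably coexpressing TLR9 and MyD88 fusions from primary screen; compound exposure lasted 48 hours before viability readout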
# [22] = biological target: Heat shock protein HSP 90-alpha (Homo sapiens, UniProt P07900); type: functional, organism-based
# [23] = system: Vero; assay: Vero cell cytotoxicity, cytotoxicity control for flavivirus capping enzyme inhibitors (AID 588742); type: functional; conditions: Chlorocebus sabaeus
# [24] = biological target: Beta Lactamase (Pseudomonas aeruginosa, UniProt Q932Y6); assay: beta-lactamase reporter inhibitor potency, dose response, artefact control for TLR9-MyD88 binding inhibitor project, BLA reporter cells, FRET fluorescence (AID 588341); type: cell-based;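 note: cell based assay in CHO-K1 cells stably expressing beta-lactamase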
# [25] = biological target: Genome polyprotein (dengue virus type 2, UniProt P29990); assay: Dengue-2 NS5 methyltransferase inhibitors, primary screen, biochemical, confirmation dose response (AID 588689); type: functional
# [26] = HeLa cell cytotoxicity, dose response, cytotoxicity control for MgcRacGAP inhibitor project (AID 624300); type: functional
# [27] = biological target: T6, Rac GTPase-activating protein 1 (Homo sapiens, UniProt Q9H0H5); assay: MgcRacGAP GTPase-activating activity inhibitors, confirmation, biochemical, ADP Hunter fluorescence, primary and confirmatory (AID 624330); type: functional
# T6 sequence (Q9H0H5 whole entry): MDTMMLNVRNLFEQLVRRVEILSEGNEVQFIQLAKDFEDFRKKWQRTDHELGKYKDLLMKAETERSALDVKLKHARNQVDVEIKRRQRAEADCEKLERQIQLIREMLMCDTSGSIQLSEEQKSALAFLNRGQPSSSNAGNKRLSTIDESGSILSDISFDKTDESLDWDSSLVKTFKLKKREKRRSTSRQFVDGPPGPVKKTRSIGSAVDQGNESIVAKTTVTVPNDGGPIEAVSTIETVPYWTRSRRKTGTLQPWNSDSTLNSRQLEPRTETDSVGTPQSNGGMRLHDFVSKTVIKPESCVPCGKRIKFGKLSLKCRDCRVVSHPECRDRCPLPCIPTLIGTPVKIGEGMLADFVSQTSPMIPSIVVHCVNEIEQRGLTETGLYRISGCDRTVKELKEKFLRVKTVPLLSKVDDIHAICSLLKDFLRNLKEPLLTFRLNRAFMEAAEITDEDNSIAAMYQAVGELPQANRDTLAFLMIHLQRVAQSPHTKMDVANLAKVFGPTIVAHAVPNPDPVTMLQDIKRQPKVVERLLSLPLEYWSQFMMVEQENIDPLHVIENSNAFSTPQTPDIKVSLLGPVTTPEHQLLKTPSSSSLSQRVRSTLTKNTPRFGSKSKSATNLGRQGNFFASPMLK
# [28] = THP-1 cell cytotoxicity, dose response, cytotoxicity control for Vif-APOBEC3G degradation inhibitor project, THP-1 cells (AID 1117359); type: functional; conditions: Human immunodeficiency virus 1, THP-1
# [29] = biological target: Glutathione-S-transferase (Schistosoma japonicum, UniProt Q26513); assay: biotin-GST/anti-GST TR-FRET signal inhibitors, dose response, artefact control for Vif-APOBEC3G degradation inhibitor project, biochemical (AID 1117362); type: functional
# [30] = P. falciparum Dd2 growth inhibitors, dose response, SYBR Green, dry powder samples, set 9 (AID 1159568); type: functional, cell-based
# [31] = biological target: G-protein coupled receptor 183 (Homo sapiens, UniProt P32249); assay: SAR confirmation of small molecule antagonists of the EBI2 receptor via a luminescent beta-arrestin assa.; type: functional
# [32] = Dose-response inhibition of insulin secretion in a rat insulinoma line at 5 mM glucose (AID 1117331); type: functional, cell-based; conditions: INS-1E
# [33] = half-maximal inhibitory concentration for glucagon-like peptide-1 release, STC-1 cell line, dose-response (AID 1117345); type: functional, cell-based
# [34] = Glucagon-like peptide 1 release potency, NCI-H716 cell line, dose-response, half-maximal inhibitory concentration (AID 1117344); type: functional, cell-based
# [35] = biological target: RNA-editing ligase 1, mitochondrial (Trypanosoma brucei brucei, UniProt P86926); assay: TbREL1 ligase inhibitors, dose response, biochemical, fluorescence, Trypanosoma brucei (AID 1117295); type: functional
# Sequence of RNA-editing ligase 1, mitochondrial (P86926 whole entry): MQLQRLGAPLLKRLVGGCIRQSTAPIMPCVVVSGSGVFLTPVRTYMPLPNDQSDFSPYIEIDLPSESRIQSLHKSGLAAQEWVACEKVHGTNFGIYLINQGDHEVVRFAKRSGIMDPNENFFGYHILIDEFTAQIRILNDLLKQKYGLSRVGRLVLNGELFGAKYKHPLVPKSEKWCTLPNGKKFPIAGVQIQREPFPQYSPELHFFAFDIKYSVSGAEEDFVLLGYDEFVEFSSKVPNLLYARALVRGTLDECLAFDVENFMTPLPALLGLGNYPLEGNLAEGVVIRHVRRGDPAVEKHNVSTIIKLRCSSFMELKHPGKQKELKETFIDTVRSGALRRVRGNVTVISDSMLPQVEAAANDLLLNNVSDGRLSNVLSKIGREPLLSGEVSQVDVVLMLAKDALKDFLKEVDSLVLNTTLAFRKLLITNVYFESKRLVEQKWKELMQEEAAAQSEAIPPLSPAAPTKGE
# T3 sequence (Q92731 whole entry): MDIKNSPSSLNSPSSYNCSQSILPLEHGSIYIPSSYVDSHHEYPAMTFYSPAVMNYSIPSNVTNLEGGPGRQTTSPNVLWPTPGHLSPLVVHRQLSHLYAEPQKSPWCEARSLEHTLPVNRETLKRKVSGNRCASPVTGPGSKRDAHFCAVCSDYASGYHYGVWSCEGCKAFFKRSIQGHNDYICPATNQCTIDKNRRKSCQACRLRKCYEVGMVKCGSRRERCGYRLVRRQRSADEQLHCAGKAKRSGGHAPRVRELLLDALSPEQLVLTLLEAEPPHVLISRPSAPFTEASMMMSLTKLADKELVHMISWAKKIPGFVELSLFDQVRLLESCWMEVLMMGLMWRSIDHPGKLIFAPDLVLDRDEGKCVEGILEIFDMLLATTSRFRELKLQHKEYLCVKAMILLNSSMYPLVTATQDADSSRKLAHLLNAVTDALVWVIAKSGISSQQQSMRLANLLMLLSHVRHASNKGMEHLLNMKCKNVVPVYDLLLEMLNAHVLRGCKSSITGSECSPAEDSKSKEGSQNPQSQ
# Sequence of Genome polyprotein (Hepatitis C virus, UniProt Q2Q167) (Q2Q167 whole entry): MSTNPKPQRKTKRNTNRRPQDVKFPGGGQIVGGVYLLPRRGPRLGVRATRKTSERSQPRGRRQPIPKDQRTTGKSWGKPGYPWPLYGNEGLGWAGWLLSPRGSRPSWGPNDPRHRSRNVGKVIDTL
# Sequence of Beta Lactamase (Q932Y6 whole entry): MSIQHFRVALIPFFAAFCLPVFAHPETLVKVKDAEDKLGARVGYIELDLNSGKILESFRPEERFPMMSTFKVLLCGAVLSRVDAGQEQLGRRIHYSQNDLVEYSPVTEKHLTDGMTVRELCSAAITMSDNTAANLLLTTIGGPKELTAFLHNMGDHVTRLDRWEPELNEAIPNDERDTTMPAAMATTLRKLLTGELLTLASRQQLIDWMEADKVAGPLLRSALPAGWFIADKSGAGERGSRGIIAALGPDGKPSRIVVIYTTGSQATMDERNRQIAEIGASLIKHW
# Sequence of Nonstructural protein 1 (Q194T2 whole entry, the tested form may be a part): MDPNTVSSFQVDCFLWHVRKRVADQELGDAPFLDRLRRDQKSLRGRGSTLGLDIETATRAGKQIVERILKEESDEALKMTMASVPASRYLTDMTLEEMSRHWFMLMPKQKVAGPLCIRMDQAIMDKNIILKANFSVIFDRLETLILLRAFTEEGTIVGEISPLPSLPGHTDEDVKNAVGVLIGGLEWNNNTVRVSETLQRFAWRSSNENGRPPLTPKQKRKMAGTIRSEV
# Sequence of Voltage-gated inwardly rectifying potassium channel KCNH2 (Q12809 whole entry): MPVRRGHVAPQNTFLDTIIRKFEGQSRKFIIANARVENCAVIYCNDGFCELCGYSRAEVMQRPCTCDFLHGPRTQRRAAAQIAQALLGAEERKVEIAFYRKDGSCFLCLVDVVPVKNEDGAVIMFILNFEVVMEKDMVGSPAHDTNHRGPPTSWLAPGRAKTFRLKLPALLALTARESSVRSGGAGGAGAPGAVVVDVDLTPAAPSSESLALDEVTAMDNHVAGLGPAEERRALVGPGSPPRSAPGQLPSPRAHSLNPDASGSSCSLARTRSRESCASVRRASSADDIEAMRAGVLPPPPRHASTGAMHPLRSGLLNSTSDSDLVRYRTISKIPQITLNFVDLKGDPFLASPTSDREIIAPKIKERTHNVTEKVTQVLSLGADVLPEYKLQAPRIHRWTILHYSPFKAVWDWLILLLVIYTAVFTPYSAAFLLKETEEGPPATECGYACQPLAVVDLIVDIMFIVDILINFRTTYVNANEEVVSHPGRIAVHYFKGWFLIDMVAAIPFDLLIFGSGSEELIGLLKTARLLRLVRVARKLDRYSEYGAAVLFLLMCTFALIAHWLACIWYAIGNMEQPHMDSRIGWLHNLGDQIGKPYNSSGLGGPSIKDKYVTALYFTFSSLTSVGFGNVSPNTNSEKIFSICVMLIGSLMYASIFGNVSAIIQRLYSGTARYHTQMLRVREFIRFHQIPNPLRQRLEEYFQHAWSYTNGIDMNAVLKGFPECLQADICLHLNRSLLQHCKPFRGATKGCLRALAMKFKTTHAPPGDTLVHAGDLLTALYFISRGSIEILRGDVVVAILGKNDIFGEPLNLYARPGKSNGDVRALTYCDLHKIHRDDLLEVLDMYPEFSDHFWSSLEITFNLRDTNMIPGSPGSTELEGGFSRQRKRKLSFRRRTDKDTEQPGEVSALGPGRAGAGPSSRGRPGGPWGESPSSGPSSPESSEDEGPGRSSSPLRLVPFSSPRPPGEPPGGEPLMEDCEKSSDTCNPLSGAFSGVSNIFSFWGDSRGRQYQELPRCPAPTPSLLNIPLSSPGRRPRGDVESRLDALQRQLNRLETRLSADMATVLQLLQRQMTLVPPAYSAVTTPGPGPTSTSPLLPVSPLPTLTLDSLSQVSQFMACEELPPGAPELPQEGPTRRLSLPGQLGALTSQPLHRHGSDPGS
# Sequence of Glutathione-S-transferase (Q26513 whole entry): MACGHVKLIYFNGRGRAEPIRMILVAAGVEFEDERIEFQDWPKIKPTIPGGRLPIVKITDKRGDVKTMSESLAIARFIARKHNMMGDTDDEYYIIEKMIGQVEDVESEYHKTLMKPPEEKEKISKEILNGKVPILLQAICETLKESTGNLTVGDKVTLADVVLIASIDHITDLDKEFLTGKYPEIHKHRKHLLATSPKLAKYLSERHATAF
# Sequence of Eukaryotic translation initiation factor 4E (P63073 whole entry, the tested form may be a part): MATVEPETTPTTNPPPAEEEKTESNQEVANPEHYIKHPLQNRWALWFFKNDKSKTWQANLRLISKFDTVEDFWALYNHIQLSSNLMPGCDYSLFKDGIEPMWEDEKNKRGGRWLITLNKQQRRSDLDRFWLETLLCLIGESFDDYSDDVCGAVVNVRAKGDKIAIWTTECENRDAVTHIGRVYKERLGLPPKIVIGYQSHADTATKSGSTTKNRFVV
# Sequence of Glucose-6-phosphate 1-dehydrogenase (P11413 whole entry): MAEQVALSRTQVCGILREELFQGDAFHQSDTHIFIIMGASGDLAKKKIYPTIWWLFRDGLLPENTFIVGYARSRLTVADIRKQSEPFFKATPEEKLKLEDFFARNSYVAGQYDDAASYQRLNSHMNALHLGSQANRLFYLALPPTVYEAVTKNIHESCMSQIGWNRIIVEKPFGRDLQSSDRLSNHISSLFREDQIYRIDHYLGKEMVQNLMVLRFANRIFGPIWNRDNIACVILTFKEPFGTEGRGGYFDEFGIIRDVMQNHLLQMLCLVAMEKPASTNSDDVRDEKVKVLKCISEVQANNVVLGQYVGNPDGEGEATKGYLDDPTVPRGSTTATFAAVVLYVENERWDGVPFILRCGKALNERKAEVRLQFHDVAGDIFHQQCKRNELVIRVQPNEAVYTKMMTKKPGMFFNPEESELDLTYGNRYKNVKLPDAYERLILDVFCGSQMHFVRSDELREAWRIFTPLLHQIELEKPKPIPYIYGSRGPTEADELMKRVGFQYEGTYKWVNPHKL
# Sequence of Genome polyprotein (dengue virus type 2, UniProt P29990) (P29990 2492-3391 limits assumed): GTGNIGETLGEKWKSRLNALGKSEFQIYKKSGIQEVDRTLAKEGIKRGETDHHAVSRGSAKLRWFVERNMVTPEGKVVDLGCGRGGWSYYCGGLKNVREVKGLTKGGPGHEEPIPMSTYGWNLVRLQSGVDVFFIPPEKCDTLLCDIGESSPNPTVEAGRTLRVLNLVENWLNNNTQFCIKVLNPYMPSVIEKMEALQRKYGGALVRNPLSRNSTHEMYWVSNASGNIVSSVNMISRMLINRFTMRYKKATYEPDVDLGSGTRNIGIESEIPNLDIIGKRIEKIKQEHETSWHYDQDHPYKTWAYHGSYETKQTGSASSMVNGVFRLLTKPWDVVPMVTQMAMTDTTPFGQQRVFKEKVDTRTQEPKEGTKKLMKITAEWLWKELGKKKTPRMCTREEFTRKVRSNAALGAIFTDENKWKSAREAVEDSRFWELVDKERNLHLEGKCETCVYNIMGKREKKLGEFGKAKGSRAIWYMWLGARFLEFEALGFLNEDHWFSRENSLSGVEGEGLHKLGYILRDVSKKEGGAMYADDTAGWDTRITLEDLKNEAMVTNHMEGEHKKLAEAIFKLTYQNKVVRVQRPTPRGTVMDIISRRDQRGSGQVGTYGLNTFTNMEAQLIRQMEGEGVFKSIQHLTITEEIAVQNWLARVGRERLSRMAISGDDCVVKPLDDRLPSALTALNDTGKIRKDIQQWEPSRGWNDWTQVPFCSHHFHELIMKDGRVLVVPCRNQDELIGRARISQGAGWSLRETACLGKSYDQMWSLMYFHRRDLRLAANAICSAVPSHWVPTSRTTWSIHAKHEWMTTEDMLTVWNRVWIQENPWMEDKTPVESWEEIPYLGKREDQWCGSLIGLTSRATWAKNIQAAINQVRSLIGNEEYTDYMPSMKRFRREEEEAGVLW
smiles,measurement,setting,value
N=c1sccn1CC(=O)Nc1ccc2c(c1)CCC2,CC50,[1],> 40 µM (active)
CCc1ccc2nc(NC(=O)c3cc(C)on3)sc2c1,EC50,[2],11.6 µM (active)
O=C1Nc2c(Cl)cc(Cl)cc2/C1=C1/Nc2ccccc2C1=O,IC50,[3],4.24 µM (active)
Cc1nc2c(o1)CCc1ccccc1C2O (stereo not given),IC50,[4],> 100 µM (not active)
CC(=O)N1CCN(c2ccccc2NC(=O)COc2cc(C)ccc2C(C)C)CC1,IC50,[5],36.7 µM (not active)
same,EC50,[6],3.67 µM (active)
Cc1sc(-c2ccncc2)nc1OC(=O)c1ccccc1,IC50,[7],56.9 µM (active)
same,IC50,[8],23.1 µM (active)
same,IC50,[9],> 100 µM (active)
O=C1Nc2ccccc2SC(c2ccccc2)C1O (stereo not given),IC50,[10],> 49.8 µM (not active)
same,IC50,[11],3.02 µM (active)
same,IC50,[12],< 1.56 µM (active)
same,IC50,[13],0.161 µM (not active)
same,IC50,[14],> 10 µM (not active)
same,IC50,[15],35.4 µM (inactive)
same,IC50,[16],5.33 µM (active)
COc1ccc(C2c3ccc4ccccc4c3Oc3ncn(CCCO)c(=N)c32)cc1OC (stereo not given),CC50,[17],19.7 µM (active)
same,IC50,[18],21.5 µM (active)
CCN(CC)c1ccc(C(=C2C=CC(=[N+](CC)CC)C=C2)c2ccccc2)cc1,IC50,[19],> 80 µM (inactive)
same,IC50,[20],10.4 µM (active)
same,IC50,[21],0.181 µM (active)
same,AC50,[22],0.754 µM (active)
same,CC50,[23],0.27 µM (active)
same,IC50,[24],4.75 µM (active)
same,IC50,[25],24.9 µM (active)
same,CC50,[26],0.823 µM (active)
same,IC50,[27],9.8 µM (active)
same,CC50,[28],0.1 µM (active)
same,IC50,[29],25.3 µM (active)
CC(C)CC#Cc1ccc([C@@H]2[C@H]3CN(C(=O)Nc4ccccc4)CCCCN3[C@H]2CO)cc1,AC50,[30],2.67 µM (active)
O=C(/C=C/c1ccc(Br)cc1)N1CCN(Cc2ccc(Cl)c(Cl)c2)CC1,IC50,[31],0.00172 µM (active)
O=C(O)C1CCC1,IC50,[32],> 33.3 µM (inactive)
same,IC50,[33],> 40 µM (inactive)
same,IC50,[34],> 40 µM (inactive)
COC(=O)C1=C(C)N(Cc2cccc(C(F)(F)F)c2)C(NCc2ccc(C(F)(F)F)cc2)=NC1c1ccccc1C(F)(F)F (stereo not given),IC50,[35],> 96.6 µM (inactive)
